Key:
[1] = system: A549 CRAF BP (MEK phosphorylation); test: A549-CRAF BP 100 nM, 2 h (pMEK); format: cell-based; conditions: Homo sapiens, A549, 2 h, phospho:total ratio normalized to DMSO control
Procedure: (§1) A549 or […] cells were treated in duplicate for two hours with compounds at varying concentrations. After two hours, the cells were lysed, snap frozen, and stored at −80° C. After storage, the lysate was quantified with the Bradford assay. Before the lysates were prepared to run on the Jess, the lysates were diluted to 1 mg/mL for pERK analysis and 1.5 mg/mL pMEK analysis using quantitative Western blotting. ERK and MEK phosphorylation levels were estimated by taking the ratio of phospho-protein to total protein and normalizing to the DMSO control. The results of this study are described in Tables 14-16.

A549 pERK = test: A549-pERK, 2 h (quantitative Western, Jess); format: cell-based; conditions: Homo sapiens, phospho:total ratio normalized to DMSO control
Procedure: as §1

SMILES | activity at 0.1 µM [1] | activity at 0.01 µM (A549 pERK; A549, 2 h, 10 nM) | activity at 10 µM (A549 pERK; A549, 2 h) | activity at 0.01 µM (A549 pERK; A549, 10 nM)
CCN(CC)Cc1c(Cc2cccc(NS(=O)(=O)NC)c2F)c(=O)oc2cc(OC(=O)N(C)C)ccc12 [Compound 73] | 33.9% | 77.7% | – | –
CNS(=O)(=O)Nc1cccc(Cc2c(CN(C)C)c3cc(Cl)c(OC(=O)N(C)C)cc3oc2=O)c1F [Compound 24] | 55.9% | 42.4% | – | –
CNS(=O)(=O)Nc1cccc(Cc2c(CN(C)C)c3cc(F)c(OC(=O)N(C)C)cc3oc2=O)c1F [Compound 25] | 71% | 66.2% | – | –
CNS(=O)(=O)Nc1cccc(Cc2c(CN3CC(OC)C3)c3ccc(OC(=O)N(C)C)cc3oc2=O)c1F [Compound 74] | 59.2% | 75.3% | – | –
Cc1c(Cc2ccnc(NS(=O)(=O)C(C)C)c2F)c(=O)oc2cc(OC(=O)N(C)C)ccc12 [Compound 114] | 59.9% | 36.6% | – | –
CNS(=O)(=O)Nc1nccc(Cc2c(CN(C)C)c3cc(F)c(OC(=O)N(C)C)cc3oc2=O)c1F [Compound 140] | 70.3% | 65% | – | –
CNS(=O)(=O)Nc1cccc(Cc2c(CN(C)C3CC3)c3ccc(OC(=O)N(C)C)cc3oc2=O)c1F [Compound 82] | 72.3% | 64.9% | – | –
CNS(=O)(=O)Nc1cccc(Cc2c(CNc3ccsc3)c3ccc(OC(=O)N(C)C)cc3oc2=O)c1F [Compound 90] | 71% | 72.4% | – | –
CCS(=O)(=O)Nc1nccc(Cc2c(C)c3ccc(OC(=O)N(C)C)cc3oc2=O)c1F [Compound 119] | 66.1% | 64.8% | – | –
CNS(=O)(=O)Nc1cccc(Cc2c(CN(C)C3CCC3)c3ccc(OC(=O)N(C)C)cc3oc2=O)c1F [Compound 86] | 53.2% | 96.4% | – | –
CCS(=O)(=O)Nc1nccc(Cc2c(CN(C)C)c3ccc(OC(=O)N(C)C)cc3oc2=O)c1F [Compound 148] | 56.5% | 49.6% | – | –
CNS(=O)(=O)Nc1cccc(Cc2c(C)c3cc(Cl)c(OC(=O)N(C)C)cc3oc2=O)c1F [Compound 109] | 41.9% | 4.51% | – | –
CN(C)C(=O)Oc1ccc2c(CN3CCNCC3)c(Cc3ccnc(NS(=O)(=O)C4CC4)c3F)c(=O)oc2c1 [Compound 150] | 90.2% | 47.4% | – | –
CNS(=O)(=O)Nc1cccc(Cc2c(CN(C)Cc3ccccc3)c3ccc(OC(=O)N(C)C)cc3oc2=O)c1F [Compound 80] | 56.1% | 56.4% | – | –
CCCN(C)Cc1c(Cc2cccc(NS(=O)(=O)NC)c2F)c(=O)oc2cc(OC(=O)N(C)C)ccc12 [Compound 81] | 78.3% | 57.6% | – | –
CCS(=O)(=O)Nc1cccc(Cc2c(CN3CCNCC3)c3cc(Cl)c(OC(=O)N(C)C)cc3oc2=O)c1F [Compound 147] | 46.4% | 21.7% | – | –
CNS(=O)(=O)Nc1cccc(Cc2c(CNCC#N)c3ccc(OC(=O)N(C)C)cc3oc2=O)c1F [Compound 33] | 51.4% | 55.4% | – | –
CNS(=O)(=O)Nc1nccc(Cc2c(C)c3cc(C)c(OC(=O)N(C)C)cc3oc2=O)c1F [Compound 110] | 56.6% | 5.92% | – | –
CNS(=O)(=O)Nc1cccc(Cc2c(CN(C)CC3CCC3)c3ccc(OC(=O)N(C)C)cc3oc2=O)c1F [Compound 88] | 53.6% | 142% | – | –
Cc1c(Cc2ccnc(NS(=O)(=O)C3CC3)c2F)c(=O)oc2cc(OC(=O)N(C)C)ccc12 [Compound 112] | 52.9% | 46.3% | – | –
CNS(=O)(=O)Nc1cccc(Cc2c(CN(C)c3ccc(Cl)cc3)c3ccc(OC(=O)N(C)C)cc3oc2=O)c1F [Compound 97] | 52.1% | 56.5% | – | –
CNS(=O)(=O)Nc1cccc(Cc2c(CN3CCNCC3)c3cc(Cl)c(OC(=O)N(C)C)cc3oc2=O)c1F [Compound 21] | 47.9% | 20.4% | – | –

SMILES | activity at 0.1 µM [1] | activity at 0.01 µM (A549 pERK; A549, 2 h, 10 nM) | activity at 10 µM (A549 pERK; A549, 2 h) | activity at 0.01 µM (A549 pERK; A549, 10 nM)
CNS(=O)(=O)Nc1cccc(Cc2c(C)c3cc(C)c(OC(=O)N(C)C)cc3oc2=O)c1F [Compound 108] | 47.9% | 5.78% | – | –
CNS(=O)(=O)Nc1cccc(Cc2c(CNCC(F)(F)F)c3ccc(OC(=O)N(C)C)cc3oc2=O)c1F [Compound 75] | 66.5% | – | – | –
CNS(=O)(=O)Nc1cccc(Cc2c(CN(C)CC#N)c3ccc(OC(=O)N(C)C)cc3oc2=O)c1F [Compound 87] | 95.8% | 63.8% | – | –
CNS(=O)(=O)Nc1nccc(Cc2c(C)c3cc(Cl)c(OC(=O)N(C)C)cc3oc2=O)c1F [Compound 111] | 48.6% | 4.63% | – | –
CNS(=O)(=O)Nc1cccc(Cc2c(CN(C)c3ccccc3)c3ccc(OC(=O)N(C)C)cc3oc2=O)c1F [Compound 79] | 45.2% | – | – | –
CNS(=O)(=O)Nc1nccc(Cc2c(CN3CC(F)(F)C3)c3ccc(OC(=O)N(C)C)cc3oc2=O)c1F [Compound 149] | – | 69.1% | – | –
CNS(=O)(=O)Nc1cccc(Cc2c(CNCCN(C)C)c3ccc(OC(=O)N(C)C)cc3oc2=O)c1F [Compound 58] | – | 98.7% | – | –
CNS(=O)(=O)Nc1cccc(Cc2c(CN3CCN(C(C)C)CC3)c3ccc(OC(=O)N(C)C)cc3oc2=O)c1F [Compound 62] | – | 73% | – | –
CNS(=O)(=O)Nc1cccc(Cc2c(CNC(=O)C(C)(C)O)c3ccc(OC(=O)N(C)C)cc3oc2=O)c1F [Compound 212] | – | 100% | 13% | –
CNS(=O)(=O)Nc1nccc(Cc2c(CN3CCNCC3)c3ccc(Oc4ncccn4)cc3oc2=O)c1F [Compound 104] | – | – | – | 77.3%
CNS(=O)(=O)Nc1cccc(Cc2c(CN3CC4(COC4)C3)c3ccc(OC(=O)N(C)C)cc3oc2=O)c1F [Compound 152] | – | 70.5% | – | –
CNS(=O)(=O)Nc1cccc(Cc2c(CNc3cn[nH]c3)c3ccc(OC(=O)N(C)C)cc3oc2=O)c1F [Compound 92] | – | 93.8% | – | –
CNS(=O)(=O)Nc1cccc(Cc2c(CN3CC(Cl)C3)c3ccc(OC(=O)N(C)C)cc3oc2=O)c1F [Compound 145] | – | 104% | – | –
CNS(=O)(=O)Nc1cccc(Cc2c(CC(=O)NC3CCOCC3)c3ccc(OC(=O)N(C)C)cc3oc2=O)c1F [Compound 215] | – | 100% | 11.8% | –
CCC(=O)NCc1c(Cc2cccc(NS(=O)(=O)NC)c2F)c(=O)oc2cc(OC(=O)N(C)C)ccc12 [Compound 207] | – | 97.4% | 11.3% | –
CNS(=O)(=O)Nc1cccc(Cc2c(CN(C)C)c3ccc(Oc4ncccn4)cc3oc2=O)c1F [Compound 129] | – | – | – | 92.2%
C#CCN(C)Cc1c(Cc2cccc(NS(=O)(=O)NC)c2F)c(=O)oc2cc(OC(=O)N(C)C)ccc12 [Compound 76] | – | 62.1% | – | –
CNS(=O)(=O)Nc1cccc(Cc2c(CNCc3ccco3)c3ccc(OC(=O)N(C)C)cc3oc2=O)c1F [Compound 56] | – | 92.9% | – | –
CNS(=O)(=O)Nc1cccc(Cc2c(CN3CCN(C(=O)c4ccccc4)CC3)c3ccc(OC(=O)N(C)C)cc3oc2=O)c1F [Compound 65] | – | 100% | – | –
CCN(C)Cc1c(Cc2cccc(NS(=O)(=O)CC)c2F)c(=O)oc2cc(OC(=O)N(C)C)c(Cl)cc12 [Compound 166] | – | 60.9% | – | –
CNS(=O)(=O)Nc1cccc(Cc2c(CNCC(=O)N(C)c3ccccc3)c3ccc(OC(=O)N(C)C)cc3oc2=O)c1F [Compound 220] | – | 109% | 4.28% | –
